According to publication PMC3984256, “A PCNA-Derived Cell Permeable Peptide Selectively Inhibits Neuroblastoma Cell Growth” (PLoS ONE, 2014):
Entries after “also recorded” stand apart in the source; their conditions may differ. Where a SMILES comes first, the peptide text is derived from it. [ ]: non-standard residue; d: D form.

Assays:
[1] = test system: SSA-mediated DSB repair, U2OS-derived SA-GFP cells; test: DSB repair reporter assay, SSA (SA-GFP); format: cell-based; details: 30 µM, GFP-positive cells 3 d after I-SceI transfection, normalized to R9-srbPep, triplicates
Description: The plasmid pCBASce expresses the rare cutting I-SceI meganuclease. The U2OS-derived cell lines, DR-GFP, EJ5-GFP, and SA-GFP contain a stably transfected reporter gene for DSB repair mediated by HR, end joining (EJ), and single-strand annealing (SSA), respectively. These cell lines were cultured in DMEM medium with 10% FBS at 37°C in the presence of 5% CO2.
DR-GFP, EJ5-GFP, and SA-GFP cell lines were seeded at 2.5×10^4 cells/cm^2 in a 12-well plate. Once attached overnight, cells were transfected with 1.2 µg of the pCBASce I-SceI expression plasmid mixed with 3.6 µl of Lipofectamine 2000 (Invitrogen) in 200 µl of Optimem media (Invitrogen). After incubation for 3 h, the media containing transfection complexes was aspirated and replaced with fresh media containing 30 µM of the peptides. The HR, EJ, and SSA-mediated DSB repair, indicated by the restoration of a functional GFP gene in the respective cell lines, were quantified by measuring the relative abundance of GFP-positive cells by flow cytometry 3 d after transfection.

SK-N-BE(2)c cells = test: Cell cycle analysis by PI flow cytometry, SK-N-BE(2)c; format: cell-based, human
Description: Cells were seeded at 1×10^5/ml. Once attached, cells were treated with or without R9-caPep for 48 hours. Cells were fixed in 60% ethanol and stained with propidium iodide (PI). The cellular PI fluorescence intensity was determined by flow cytometry. The flow cytometry data were analyzed by the FlowJo program to model various cell populations.

[2] = test system: SV40 T-antigen-dependent DNA replication, nuclear extracts from SK-N-BE(2)c cells; test: SV40 T-antigen-dependent DNA replication assay in vitro; format: biochemical; details: nuclear extracts incubated with peptide 20 min; 32P dCTP incorporation, normalized to PBS, triplicates
Description: The assay was performed essentially as described, except that nuclear extracts from SK-N-BE(2)c cells were used in the assay.
Figure 3 Inhibition of DNA replication and induction of S-phase arrest and apoptosis by R9-caPep. a) SK-N-BE(2)c cells were pulsed in 10 µM of BrdU for 30 min after being pre-treated with R9-caPep or R9-srbPep for 7.5 h. The relative abundances of BrdU-positive cells in triplicates were averaged and graphed plus/minus standard deviations. b) Nuclear extracts from SK-N-BE(2)c cells were incubated with the indicated concentrations of R9-caPep (grey bars) or R9-srbPep (black bars) for 20 min. SV40 T-antigen was then added to the nuclear extracts along with premixed reaction buffer containing ^32P dCTP. […] The polymerized radioactivity was measured by a scintillation counter. The T-antigen-dependent incorporation of ^32P dCTP was calculated by subtracting T-antigen-independent radioactivity from the total radioactivity and was normalized to the T-antigen-dependent radioactivity in PBS-treated samples. Triplicates of normalized T-antigen-dependent radioactivity for each treatment condition were averaged and graphed plus/minus standard deviations. c) SK-N-BE(2)c and non-malignant 7SM0032 cells were fixed and stained with propidium iodide (PI) after being treated with the indicated concentrations of R9-caPeptide for 48 h. […] Cells were fixed and analyzed by a TUNEL assay. […]

[3] = test system: intracellular LIGI or FEN1 level; test: Western blot of intracellular LIGI or FEN1 level (data not shown); format: cell-based

In the case of `CC[C@H](C)[C@H](NC(=O)CNC(=O)[C@H](CC(C)C)NC(=O)[C@H](CS)NC(=O)[C@H](CS)NC(=O)[C@@H](CCCNC(=N)N)NC(=O)[C@@H](CCCNC(=N)N)NC(=O)[C@@H](CCCNC(=N)N)NC(=O)[C@@H](CCCNC(=N)N)NC(=O)[C@@H](CCCNC(=N)N)NC(=O)[C@@H](CCCNC(=N)N)NC(=O)[C@@H](CCCNC(=N)N)NC(=O)[C@@H](CCCNC(=N)N)NC(=O)[C@H](N)CCCNC(=N)N)C(=O)N1CCC[C@H]1C(=O)N[C@@H](CCC(=O)O)C(=O)N[C@@H](CCC(N)=O)C(=O)N[C@@H](CCC(=O)O)C(=O)N[C@@H](Cc1ccc(O)cc1)C(=O)O` [R9-caPep] (H-[dR][dR][dR][dR][dR][dR][dR][dR][dR]CCLGIPEQEY-OH; N-terminus and C-terminus assumed), the “SSA-mediated DNA repair” value [1] is reported as “only small effects on EJ or SSA; also recorded: slightly enhances DNA repair through SSA”, the cell cycle arrest (SK-N-BE(2)c cells; NB cells (SK-N-BE(2)c), 48 h, 20 or 40 µM) is reported as “caused S-phase arrest in NB cells” and the “apoptosis: sub-G1 cell population” value (SK-N-BE(2)c cells; SK-N-BE(2)c, 40 µM, 48 h) is reported as “rise of a sub-G1 cell population”. For the same compound, the “relative abundance of cells in S-phase, longer treatment” value (SK-N-BE(2)c cells; treatment longer than 6 h (Fig. 3c, 48 h)) was “increased the relative abundance of cells in S-phase”, the “SV40 T-antigen-dependent DNA replication” value [2] was “inhibited SV40 T-antigen-dependent DNA replication in vitro” and the “intracellular LIGI or FEN1 level” value [3] was “didn't affect intracellular LIGI or FEN1 level”.
